Measured values taken from patent publication US10023587B2, “Oxabicycloheptanes and oxabicycloheptenes, their preparation and use” (LIXTE BIOTECHNOLOGY, INC., priority 2007, dated 2018).

Test system: medulloblastoma cell line DAOY
Experiment: Inhibition of growth of medulloblastoma cell line DAOY
Assay type: cell-based
Conditions: over 7 days (FIG. 16)
Description: For all cell culture experiments, cells are allowed to grow in the presence or absence of different concentrations of drug or in the presence of the vehicle used to dissolve the drug, PBS for compound 100 and DMSO for compound 102. Cell counts are done in triplicate on day 3 and day 7 and inhibition of growth is expressed as a percentage of the number of cells present in the experimental well divided by the number of cells in a control well.

`CN1CCN(C(=O)C2C(C(=O)O)[C@H]3CC[C@@H]2O3)CC1` (stereo partly shown) [Compound 100, Endothall 4-Methylpiperazine Monoamide] was tested, and the “Inhibition of growth of DAOY (in words)” value was “dose dependent inhibition”.
